Broadly, the inhibition is how much of the control response was suppressed.

Results on five molecules are retold here after US7973014B2, “Medicinal composition containing ginseng secondary glycosides, its preparation method and application” (National Institute of Pharmaceutical R&D Co., Ltd., priority 2005, dated 2011).

Like-named read-outs stand apart in the source and are kept apart here. Marks after values point to notes of the source that are not given here.

The conditions of series [1]: oral administration, human body; cited from earlier work.
For a further series, the system named is cancer cells. Particulars: cited from earlier work.
For the next series, the system named is platelets. Particulars: cited from earlier work.
The target of the next series is thrombin (Homo sapiens, UniProt P00734). The conditions noted are these: cited from earlier work.
Series [2] has as its system acute myocardial infarction in dogs. In words: Range of acute myocardial infarction in dogs, N-BT staining. Particulars: 5 mg/kg. It counts as in vivo, dog. As to the method:
(§1) Test dogs were divided into the following 8 groups, 6 dogs per group: (1) blank control group, 3 ml/kg physiological saline; (2) 5 mg/kg Diltiazem group; (3) 200 mg/kg “Di'ao Xinxuekang” group; (4) 200 mg/kg ginseng root total ginsenosides (briefly referred as root total ginsenosides) group; (5) 200 mg/kg ginseng stem/leave total ginsenosides (briefly referred as stem/leave total ginsenosides) group; (6) 25 mg/kg total secondary ginsenosides group; (7) 50 mg/kg total secondary ginsenosides group; and (8) 100 mg/kg total secondary ginsenosides group. All test drugs were formulated with distilled water to have the same volume (3 ml/kg), and were administered through duodenum.
Recording was completed at 180 minutes after administration of drug, heart was taken out immediately, cardiac ventricle was cross-sectioned parallel to coronary sulcus under heart ligature to form 5 slices, which were placed in N-BT staining solution and stained at room temperature for 15 minutes. Infarction zone (N-BT non-staining zone) and non-infarction zone (N-BT staining zone) at both sides of each slice of cardiac muscle were measured by using a multimedia color pathologic image analysis system to calculate the area of each slice of cardiac muscle, the total area of the cardiac ventricle and the total area of the infarction zones. The percentages of infarction zones based on the cardiac ventricle and on the whole heart were calculated.
(§2) The test results were statistically analyzed, and t-test was used to determine the significance.

The test system of series [3] is rat arrhythmia induced by BaCl2. In words: Arrhythmia induced by BaCl2 in rats. Particulars: 50 mg/kg. It counts as in vivo. As for the experimental part:
70 SD rats, including half male and half female, were randomly divided into: control group, Diltiazem group, 200 mg/kg Di'ao Xinxuekang group, 200 mg/kg the root total ginsenosides group, and 200, 100, 50, 25 mg/kg dosage groups of the total secondary ginsenosides. On the 7th day of administration of drug, 30 minutes after the administration of drug, each of the rats was anesthetized by intraperitoneal injection of 300 mg/kg 10% chloral hydrate, fixed in supine position on rat bench. The chart speed was set at 50 mm/s, and the sensitivity was set at 20 mm/mv. After printing under standard voltage, normal II Lead electrocardiogram was recorded for a certain period, then the rat was administered with 4 mg/kg barium chloride via sublingual vein and observed immediately to record the electrocardiograms at 1, 5, 10, 15, 20, 25, 30 minutes after the administration of barium chloride. The heart rate was calculated and compared with the reference value before administration, and the onset time and time period of arrhythmia were compared as well. The incidence rates of ventricular premature beat (VP), ventricular tachycardia (VT) and ventricular fibrillation (VF) were calculated.

The subject of series [4] is acute myocardial ischemia induced by coronary artery ligation in anesthetized dogs. In words: Myocardial ischemia induced by coronary artery ligation in anesthetized dogs, epicardial electrogram mapping. It counts as in vivo, dog. Particulars: 5 mg/kg. As to the method:
as §1
(§3) Animals each was anesthetized with sodium pentobarbital (30 mg/kg), operated to form pericardium bed; left circumflex artery was separated, an electromagnetic flow meter probe was placed therein to measure cardiac coronary blood flow (CCBF); middle section of anterior descending coronary artery was separated, braided for ligation to create an experimental acute myocardial ischemia model; a multipoint fixed epicardial lead was sutured and connected with a multichannel electrophysiolograph to record epicardial electrogram. Coronary artery was ligated for 15 minutes, and recorded as control value before administration of drug, test drug or physiological saline was administered via duodenum, 30 mapping point epicardial electrograms were recorded at 15, 30, 45, 60, 90, 120, 180 minutes after the administration of drug, and the degree of myocardial ischemia (Σ-ST, total increase of mv number in S-T section) and the range of myocardial ischemia (N-ST, total increase of point numberin S-T section) were calculated. Blood samples were taken at orifice of coronary sinus vein by cannulation via external jugular vein before ischemia, at 15 minutes after ischemia (before administration of drug), and at 0, 30, 60, 90, 120, 180 minutes after administration of drug, the contents of oxygen in the coronary venous blood were measured by oxyhemograph; cannulation was made to common carotid artery, where the contents of […] in the arterial blood were measured, which together with coronary blood flow were used to calculate myocardial oxygen consumption (MOC). Blood samples were taken at the abovementioned time points to measure the levels of serum creatine kinase (CK) and lactic acid dehydrogenase (LDH); and the levels of blood plasma endothelin (ET), thromboxane B2 (TXB2) and 6-keto-prostaglandin F1a (6-Keto-PGF1a) were measured by an automatic γ-counter radioimmunologically.
as §2

Series [5] relates to thrombosis in experimental rat jugular arteriovenous bypass. Nature of the series: Thrombosis in rat jugular arteriovenous bypass. Type of series: in vivo. The conditions noted are these: for inhibition at 50 mg/kg: Rattus norvegicus. As to the method: 70 Rats, half male and half female, weighting 250-300 g, were randomly divided into 7 groups, 10 rats per group, and fed for one week in advance. The said 7 groups included high, middle and low dosage groups of the total secondary ginsenosides (200, 100 and 50 mg/kg), and control groups: Diltiazem group (50 mg/kg), Di'ao Xinxuekang group (200 mg/kg), root total ginsenosides group (200 mg/kg) and blank control group (water). administered All the drugs and controls were administered through intragastrical perfusion for 7 days.
Measurement of the rate for inhibition of thrombosis: on the 7th day after administration of drug, 30 minutes after the administration, each of rats was anesthetized with sodium pentobarbital, the left external jugular vein and right common carotid artery were separated, three segments of polyethylene tubes were used to form cannula, and then 5 cm weighed 4-suture was placed in the middle segment. These polyethylene tubes were filled with heparin-physiological saline (50 U/ml). When one end of the tube was inserted into the external jugular vein, one end of the tube was clamped and the end fixed by suture was inserted into the right common carotid artery. After this operation, bleeding was performed immediately and then stopped 15 minutes later, the suture was taken out quickly and weighed. The wet weight of thrombus was calculated by subtracting the suture weight from the total weight. The thrombosis inhibition rate was calculated according to the following formula. Inhibition rate (%)=[(Thrombus weight of the control group)−(Thrombus weight of the group administered with drug)]/(Thrombus weight of the control group)×100% Results: […]

Series [6] deals with coronary blood flow in experimental myocardial ischemia dogs. In words: Coronary blood flow in experimental myocardial ischemia dogs. Type of series: in vivo, dog. The conditions noted are these: 5 mg/kg. As to the method:
as §1, §3

As for `CC(C)=CCC[C@](C)(O[C@@H]1O[C@H](CO[C@@H]2O[C@H](CO)[C@@H](O)[C@H](O)[C@H]2O)[C@@H](O)[C@H](O)[C@H]1O)[C@H]1CC[C@]2(C)[C@@H]1[C@H](O)C[C@@H]1[C@@]3(C)CC[C@H](O[C@@H]4O[C@H](CO)[C@@H](O)[C@H](O)[C@H]4O[C@@H]4O[C@H](CO)[C@@H](O)[C@H](O)[C@H]4O)C(C)(C)[C@@H]3CC[C@]12C` [ginsenoside-Rb1], in series [1], the absorption rate is reported as 1%.

Turning to `CC(C)=CCC[C@](C)(O)[C@H]1CC[C@]2(C)[C@@H]1[C@H](O)C[C@@H]1[C@@]3(C)CC[C@H](O[C@@H]4O[C@H](CO)[C@@H](O)[C@H](O)[C@H]4O[C@@H]4O[C@H](CO)[C@@H](O)[C@H](O)[C@H]4O)C(C)(C)[C@@H]3CC[C@]12C` [Ginsenoside Rg3], in the series on cancer cells, the anticancer activity result is reported as “significant anticancer activity”. Further, the “platelet aggregation induced by collagen or ADP” value in the series with platelets was “relatively strong inhibitory effects”.

In the case of `CC(C)=CCC[C@](C)(O)[C@H]1CC[C@]2(C)[C@@H]1[C@H](O)C[C@@H]1[C@@]3(C)CC[C@H](O)C(C)(C)[C@@H]3[C@@H](O[C@@H]3O[C@H](CO)[C@@H](O)[C@H](O)[C@H]3O)C[C@]12C` [Ginsenoside Rh1], in the series on cancer cells, the anticancer activity result is recorded as “significant anticancer activity”. The “conversion of fibrinogen to fibrin induced by thrombin” value at thrombin was “significant inhibitory effects”.

As to `CC(C)=CCC[C@](C)(O)[C@H]1CC[C@]2(C)[C@@H]1[C@H](O)C[C@@H]1[C@@]3(C)CC[C@H](O[C@@H]4O[C@H](CO)[C@@H](O)[C@H](O)[C@H]4O)C(C)(C)[C@@H]3CC[C@]12C` [Rh2, ginsenoside Rh2], the anticancer activity entry in the series with cancer cells was “significant anticancer activity”.

Turning to `COc1ccc([C@@H]2Sc3ccccc3N(CCN(C)C)C(=O)[C@@H]2OC(C)=O)cc1` [Diltiazem], the Infarction zone area in [2] was 266.25 ± 63.4*** mm^2. The Infraction zone/cardiac ventricle in [2] is 5.36 ± 1.70. Further, the Infraction zone/heart in series [2] stood at 2.27 ± 0.83. In series [3], the Duration of arrhythmia is 13.2 ± 6.0 min. For the same molecule, the “Incidence rate of VF” value in series [3] is 0* %. For the same molecule, in series [3], the “Onset time of VP” value stood at 15.0 ± 10.8 s. For the same molecule, the “Onset time of VT” value in series [3] is on record as 20 ± 8.8 s. For the same molecule, the Heart rate turned out to be 327 ± 64 beat/min in series [3] (5 min after BaCl2); 360 ± 88 beat/min in [3] (10 min after BaCl2); 381 ± 71 beat/min in series [3] (20 min after BaCl2); 399 ± 42 beat/min in [3] (30 min after BaCl2); 397 ± 53 beat/min in [3] (before BaCl2). In addition, the N-ST change rate in [4] (15 min after drug) turned out to be 89.60 ± 8.40 %; in series [4] (30 min after drug), 89.53 ± 15.49%; in series [4] (45 min after drug), 86.82 ± 14.83%; in [4] (60 min after drug), 87.48 ± 15.08%; in series [4] (90 min after drug) it was 81.41 ± 14.31 %; in [4] (120 min after drug), 77.22 ± 16.49 %. In addition, the N-ST change rate in series [4] (180 min after drug) is reported as 75.89 ± 19.59 %. In addition, the “acute myocardial ischemia (N-ST)” value in [4] (15 min after drug) is 24.83 ± 2.04; in series [4] (30 min after drug) it was 25.33 ± 4.08; in series [4] (45 min after drug), 23.17 ± 5.91; in series [4] (60 min after drug), 23.50 ± 4.85; in series [4] (90 min after drug), 21.50 ± 5.86; in series [4] (120 min after drug) it was 20.00 ± 6.00. Moreover, the “acute myocardial ischemia (N-ST)” value in [4] (180 min after drug) is on record as 20.67 ± 5.99; in [4] (before drug), 28.67. Besides, the “degree of acute myocardial ischemia (Σ-ST)” value in series [4] (15 min after drug) is listed as 182.00 ± 70.40 mv; in series [4] (30 min after drug), 149.83 ± 41.36 mv; in series [4] (45 min after drug), 126.00 ± 47.35 mv; in [4] (60 min after drug), 148.67 ± 71.87 mv; in series [4] (90 min after drug), 140.17 ± 63.46 mv; in series [4] (120 min after drug) it was 139.00 ± 69.20 mv. In addition, the entries for the “degree of acute myocardial ischemia (Σ-ST)” value in [4] (180 min after drug) and in series [4] (before drug) were 117.17 ± 54.27 mv and 291.00 ± 40.39 mv, respectively. Further, the Σ-ST change rate in series [4] (15 min after drug) is reported as 61.01 ± 20.89 %; in [4] (30 min after drug), 48.75 ± 9.99 %; in series [4] (45 min after drug) it was 42.43 ± 8.97 %; in series [4] (60 min after drug), 47.78 ± 10.82 %; in series [4] (90 min after drug), 54.98 ± 18.57 %; in series [4] (120 min after drug) it was 52.21 ± 19.91 %. In [4] (180 min after drug), the Σ-ST change rate is listed as 45.99 ± 18.90 %. Also, the “Wet weight of thrombus” value in series [5] (50 mg/kg intragastric, 7 days) stood at 0.0200 ± 0.005 g. Further, the inhibition at 50 mg/kg in [5] (po, 168 h, 50 mg/kg intragastric, 7 days, read-out: Inhibition rate) is 32.9%; in series [5] (50 mg/kg, read-out: inhibition rate of thrombosis), 33%. Also, the coronary blood flow stood at 110.36 ± 58.20 ml/100 g · min^−1 in series [6] (30 min after drug); 119.11 ± 61.62 ml/100 g · min^−1 in [6] (60 min after drug); 122.97 ± 64.44 ml/100 g · min^−1 in series [6] (90 min after drug); 119.15 ± 65.51 ml/100 g · min^−1 in series [6] (120 min after drug); 112.10 ± 60.59 ml/100 g · min^−1 in series [6] (180 min after drug); 101.82 ± 54.71 ml/100 g · min^−1 in series [6] (after ischemia before drug). For the same molecule, in [6] (before ischemia (normal value)), the coronary blood flow is recorded as 92.07 ± 46.98 ml/100 g · min^−1. Further, the “coronary blood flow change rate” value worked out at 108.70 ± 3.32 % in [6] (30 min after drug); 117.06 ± 5.17 % in series [6] (60 min after drug); 120.06 ± 7.27 % in [6] (90 min after drug); 116.97 ± 7.33 % in series [6] (120 min after drug); 112.21 ± 6.46 % in [6] (180 min after drug); 110.34 ± 4.17% in series [6] (after ischemia before drug).
